Experimental data published in patent US9428504B2, “7-hydroxy-spiropipiperidine indolinyl antagonists of P2Y1 receptor” (BRISTOL-MYERS SQUIBB COMPANY, priority 2012, dated 2016).

How the values were obtained:
[1] = biological target: cloned human P2Y1 receptors (Homo sapiens (Human), UniProt P47900); assay: Binding Assay B: Scintillation Proximity Assay (SPA) for P2Y1 binding; conditions: SPA, [33P] 2MeS-ADP displacement; read-out: P2Y1 Ki (nM) using binding assay B
Procedure: A SPA membrane binding assay was used to identify inhibitors of [^33P] […] Binding reactions were performed in 384-well OptiPlates (PerkinElmer Life Sciences, Cat #6007299) in a volume of 50 μL containing ˜15 fmol of P2Y1 receptor (1.7 μg of total protein), 0.3 nM [^33P] […] Reactions were allowed to proceed to completion at room temperature for 1 hour followed by centrifugation of the plate for 5 min. About 40 μL of the aqueous solution was aspirated. Plates were sealed and the [^33P]

[2] = system: human platelet rich plasma (PRP); assay: ADP induced platelet aggregation assay; conditions: Homo sapiens, Platelet, read-out: PA IC50 (μM) @ 10 μM ADP, platelet aggregation induced by 10 μM ADP, human PRP
Procedure: The ability of P2Y1 antagonists covered in the present invention to inhibit platelet aggregation induced by 10 μM ADP was tested using human platelet rich plasma (PRP) as described in Platelet Protocols: Research and Clinical Laboratory Procedures (White, M. M. et al., Academic Press (1999)). Human blood was collected in 30 μM (final concentration in blood) argatroban (GSK) as the anticoagulant at a ratio of 1 ml per 9 ml of blood. The PRP was isolated by centrifugation at 170 g for 12 minutes. The platelet poor plasma (PPP) was used as the blank for optical aggregometry. Compounds of the present invention in DMSO solution was preincubated with 250 μl PRP at 37° C. for 1 minute with stirring speed of 1000 rpm. Aggregation was initiated by addition of 2.5 μl of 1 mM ADP (Chrono-log, Havertown, Pa.) for a final ADP concentration of 10 μM. Platelet aggregation was monitored using Optical Aggregometer (Chrono-log, Havertown, Pa.) and the area under the curve (AUC) at 5 minute was measured. IC50 was calculated using vehicle control as 0% inhibition.

Sequence of cloned human P2Y1 receptors (P47900 whole entry): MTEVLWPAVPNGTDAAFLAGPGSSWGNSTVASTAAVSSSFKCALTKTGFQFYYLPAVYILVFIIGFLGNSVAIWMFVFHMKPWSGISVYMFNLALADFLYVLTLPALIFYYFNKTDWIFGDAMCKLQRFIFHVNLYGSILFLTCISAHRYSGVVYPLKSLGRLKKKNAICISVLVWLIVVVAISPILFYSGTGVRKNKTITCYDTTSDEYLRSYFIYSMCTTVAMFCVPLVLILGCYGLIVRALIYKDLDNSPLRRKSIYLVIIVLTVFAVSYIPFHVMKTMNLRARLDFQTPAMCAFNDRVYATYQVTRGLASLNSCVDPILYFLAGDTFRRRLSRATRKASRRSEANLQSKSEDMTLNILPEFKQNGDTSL

With `CC(C)(C)CN1CCC2(CC1)CN(c1ccccc1NC(=O)Nc1ccc(C(C)(C)C)cc1)c1c(O)cccc12` [Example 5, 1-(4-tert-Butylphenyl)-3-(2-(7-hydroxy-1′-neopentylspiro[indoline-3,4′-piperidine]-1-yl)phenyl)urea] as the compound, how does the Ki [1] read?
Its Ki is 8.3 nM.

What about the IC50 [2] of the same compound?
Its IC50 is 0.4 µM.

`CC(C)(C)CN1CCC2(CC1)CN(c1ccccc1NC(=O)Nc1ccc(OC(F)(F)F)cc1)c1c(O)ccc(F)c12` [Example 6, 1-(2-(4-Fluoro-7-hydroxy-1′-neopentylspiro[indoline-3,4′-piperidine]-1-yl)phenyl)-3-(4-(trifluoromethoxy)phenyl)urea] was tested. Which Ki [1] did it give?
The Ki was 4.4 nM.

What about the IC50 [2] of the same compound?
The IC50 was 0.9 µM.

For `CC(C)(C)CN1CCC2(CC1)CN(c1ccccc1NC(=O)Nc1ccc(C(C)(C)C)cc1)c1c(O)ccc(F)c12` [Example 7, 1-(4-tert-Butylphenyl)-3-(2-(4-fluoro-7-hydroxy-1′-neopentylspiro[indoline-3,4′-piperidine]-1-yl)phenyl)urea], which Ki [1] is on record?
The Ki was 4 nM.

And the IC50 [2]?
The IC50 was 0.6 µM.

Which results are given for `CC(C)(C)CN1CCC2(CC1)CN(c1ccccc1NC(=O)Nc1ccc(OC(F)(F)F)cc1)c1c(O)ccc(C#N)c12` [Example 8, 1-(2-(4-Cyano-7-hydroxy-1′-neopentylspiro[indoline-3,4′-piperidine]-1-yl)phenyl)-3-(4-(trifluoromethoxy)phenyl)urea]?
Ki [1]: 5.7 nM; IC50 [2]: 1.1 µM

For `CC(C)(C)CN1CCC2(CC1)CN(c1ccccc1NC(=O)Nc1ccc(C(C)(C)C)cc1)c1c(O)cc(F)c(F)c12` [Example 9, 1-(4-tert-Butylphenyl)-3-(2-(4,5-difluoro-7-hydroxy-1′-neopentylspiro [indoline-3,4′-piperidine]-1-yl)phenyl)urea], which Ki [1] is on record?
The Ki was 10.5 nM.

And the IC50 [2]?
The IC50 was 0.9 µM.

With `CC(C)(C)CN1CCC2(CC1)CN(c1ccccc1NC(=O)Nc1ccc(OC(F)(F)F)cc1)c1c(O)ccc(C(F)(F)F)c12` [Example 10, 1-(2-(7-Hydroxy-1′-neopentyl-4-(trifluoromethyl)spiro[indoline-3,4′-piperidine]-1-yl)phenyl)-3-(4-(trifluoromethoxy)phenyl)urea] as the compound, how does the Ki [1] read?
Its Ki is 4.5 nM.

What about the IC50 [2] of the same compound?
Its IC50 is 0.1 µM.

Which Ki [1] does the source give for `CC(C)(C)CN1CCC2(CC1)CN(c1ccccc1NC(=O)Nc1ccc(C(C)(C)C)cc1)c1c(O)ccc(C(F)(F)F)c12` [Example 11, 1-(4-tert-Butylphenyl)-3-(2-(7-hydroxy-1′-neopentyl-4-(trifluoromethyl)spiro[indoline-3,4′-piperidine]-1-yl)phenyl)urea] here?
The Ki was 7.9 nM.

And the IC50 [2]?
The IC50 was 0.1 µM.

Which results are given for `CC(C)(C)CN1CCC2(CC1)CN(c1ncccc1NC(=O)Nc1ccc(OC(F)(F)F)cc1)c1c(O)ccc(C(F)(F)F)c12` [Example 12, 1-(2-(7-Hydroxy-1′-neopentyl-4-(trifluoromethyl)spiro[indoline-3,4′-piperidine]-1-yl)pyridin-3-yl)-3-(4-(trifluoromethoxy)phenyl)urea]?
Ki [1]: 5.6 nM; IC50 [2]: 1.4 µM

With `CC(C)(C)CN1CCC2(CC1)CN(c1ccccc1NC(=O)Nc1ccc(OC(F)(F)F)cc1)c1c2ccc(F)c1O` [Example 14, 1-(2-(6-Fluoro-7-hydroxy-1′-neopentylspiro[indoline-3,4′-piperidine]-1-yl)phenyl)-3-(4-(trifluoromethoxy)phenyl)urea] as the compound, how does the Ki [1] read?
The Ki was 12.8 nM.

What about the IC50 [2] of the same compound?
Its IC50 is 2.1 µM.

What does the source list for `CC(C)(C)CN1CCC2(CC1)CN(c1ccccc1NC(=O)Nc1ccc(F)c(F)c1)c1c(O)ccc(C(F)(F)F)c12` [Example 15, 1-(3,4-Difluorophenyl)-3-(2-(7-hydroxy-1′-neopentyl-4-(trifluoromethyl)spiro[indoline-3,4′-piperidine]-1-yl)phenyl)urea]?
Ki [1]: 5.1 nM; IC50 [2]: 0.5 µM

With `CCSc1nsc(NC(=O)Nc2ccccc2N2CC3(CCN(CC(C)(C)C)CC3)c3c(C(F)(F)F)ccc(O)c32)n1` [Example 16, 1-(3-(Ethylthio)-1,2,4-thiadiazol-5-yl)-3-(2-(7-hydroxy-1′-neopentyl-4-(trifluoromethyl)spiro[indoline-3,4′-piperidine]-1-yl)phenyl)urea] as the compound, how does the Ki [1] read?
The Ki was 8.1 nM.

And the IC50 [2]?
Its IC50 is 0.3 µM.

`CC(C)(C)CN1CCC2(CC1)CN(c1ccccc1NC(=O)Nc1ccc(OC(F)F)cc1)c1c(O)ccc(C(F)(F)F)c12` [Example 17, 1-(4-(Difluoromethoxy)phenyl)-3-(2-(7-hydroxy-1′-neopentyl-4-(trifluoromethyl)spiro[indoline-3,4′-piperidine]-1-yl)phenyl)urea] was tested. Which Ki [1] did it give?
The Ki was 9 nM.

What about the IC50 [2] of the same compound?
Its IC50 is 0.4 µM.

What does the source list for `CC(C)(C)CN1CCC2(CC1)CN(c1ccccc1NC(=O)Nc1csc(Cl)n1)c1c(O)ccc(C(F)(F)F)c12` [Example 18, 1-(2-Chlorothiazol-4-yl)-3-(2-(7-hydroxy-1′-neopentyl-4-(trifluoromethyl)spiro[indoline-3,4′-piperidine]-1-yl)phenyl)urea]?
Ki [1]: 6.2 nM; IC50 [2]: 0.1 µM

With `CC(C)c1nsc(NC(=O)Nc2ccccc2N2CC3(CCN(CC(C)(C)C)CC3)c3c(C(F)(F)F)ccc(O)c32)n1` [Example 19, 1-(2-(7-Hydroxy-1′-neopentyl-4-(trifluoromethyl)spiro[indoline-3,4′-piperidine]-1-yl)phenyl)-3-(3-isopropyl-1,2,4-thiadiazol-5-yl)urea] as the compound, how does the Ki [1] read?
The Ki was 7.5 nM.

What about the IC50 [2] of the same compound?
Its IC50 is 0.2 µM.

For `CC(C)(C)CN1CCC2(CC1)CN(c1ccccc1NC(=O)Nc1ccc(F)cc1F)c1c(O)ccc(C(F)(F)F)c12` [Example 20, 1-(2,4-Difluorophenyl)-3-(2-(7-hydroxy-1′-neopentyl-4-(trifluoromethyl)spiro[indoline-3,4′-piperidine]-1-yl)phenyl)urea], which Ki [1] is on record?
The Ki was 3.2 nM.

And the IC50 [2]?
The IC50 was 0.2 µM.

Which results are given for `CC(C)(C)CN1CCC2(CC1)CN(c1ccccc1NC(=O)Nc1nc3ccc(Cl)cc3s1)c1c(O)ccc(C(F)(F)F)c12` [Example 21, 1-(6-Chlorobenzo[d]thiazol-2-yl)-3-(2-(7-hydroxy-1′-neopentyl-4-(trifluoromethyl)spiro[indoline-3,4′-piperidine]-1-yl)phenyl)urea]?
Ki [1]: 30.9 nM; IC50 [2]: 0.4 µM

What does the source list for `CC(C)(C)CN1CCC2(CC1)CN(c1ccccc1NC(=O)Nc1ccc(C(F)(F)F)cc1)c1c(O)ccc(C(F)(F)F)c12` [Example 22, 1-(2-(7-Hydorxy-1′-neopentyl-4-(trifluoromethyl)spiro[indoline-3,4′-piperidine]-1-yl)phenyl)-3-(4-(trifluoromethyl)phenyl)urea]?
Ki [1]: 4.4 nM; IC50 [2]: 0.2 µM

What does the source list for `CC(C)(C)CN1CCC2(CC1)CN(c1ccccc1NC(=O)Nc1ccc(C(F)(F)F)nc1)c1c(O)ccc(C(F)(F)F)c12` [Example 23, 1-(2-(7-Hydroxy-1′-neopentyl-4-(trifluoromethyl)spiro[indoline-3,4′-piperidine]-1-yl)phenyl)-3-(6-(trifluoromethyl)pyridin-3-yl)urea]?
Ki [1]: 8 nM; IC50 [2]: 1.1 µM

How did the Ki [1] turn out when `CC(C)(C)CN1CCC(NC(=O)Nc2ccccc2N2CC3(CCN(CC(C)(C)C)CC3)c3c(C(F)(F)F)ccc(O)c32)CC1` [Example 24, 1-(2-(7-Hydroxy-1′-neopentyl-4-(trifluoromethyl)spiro[indoline-3,4′-piperidine]-1-yl)phenyl)-3-(1-neopentylpiperidin-4-yl)urea] was run?
The Ki was 14.8 nM.

And the IC50 [2]?
The IC50 was 0.4 µM.

Which Ki [1] does the source give for `Cc1nc(NC(=O)Nc2ccccc2N2CC3(CCN(CC(C)(C)C)CC3)c3c(C(F)(F)F)ccc(O)c32)cs1` [Example 25, 1-(2-(7-Hydroxy-1′-neopentyl-4-(trifluoromethyl)spiro[indoline-3,4′-piperidine]-1-yl)phenyl)-3-(2-methylthiazol-4-yl)urea] here?
The Ki was 4.9 nM.

What about the IC50 [2] of the same compound?
The IC50 was 0.1 µM.
